For series [1], the system named is human hepatoma cells (Huh7). The experiment in a line: Human hepatoma viability assay (CellTiter-Blue). The format is cell-based. Conditions: Homo sapiens, Huh-7; 48 h, Huh7; read-out: IC50, human hepatoma inhibition (viability). The procedure, abridged:
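Huh7 cells (10,000/well) were seeded and treated the next day with serially diluted compound or DMSO, with media partially renewed with fresh dilutions over two days.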
On the technique in general: Alamar Blue is a resazurin reagent that responds to reducing activity.

Series [2] concerns Toxoplasma gondii tachyzoites (RH strain). The experiment in a line: Toxoplasma growth inhibition assay (tdTomato fluorescence, in HFF cells). The class given is cell-based. The settings on record: Toxoplasma gondii, HFF, 72 h, read-out: IC50, T. gondii tachyzoite growth inhibition.
Series [3] concerns human foreskin fibroblasts (HFF). The experiment in a line: Human foreskin fibroblast growth inhibition assay (SYBR Safe). The settings on record: Homo sapiens, Fibroblast; 72 h, HFF; read-out: IC50, human fibroblast growth inhibition. The class given is cell-based. The method, boiled down: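 About 5000 HFF cells per well incubated with compound serial dilutions for 72 hours at 37 °C, until confluent. Growth quantified by DNA content: freeze-thaw, then SYBR Safe (1/10,000 final) in lysis buffer, fluorescence 490/520 nm. 10 µg/mL cycloheximide defines background (no growth).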

In series [4] the test system is P. falciparum stage III–IV gametocytes. The experiment in a line: P. falciparum gametocyte viability assay (MitoTracker, flow cytometry), stage III-IV. The settings on record: 48 h; for Gametocyte stage III-IV viability, percentage of control: replicate values, source data Fig. 2C. The class given is cell-based, Plasmodium falciparum. The method, boiled down:
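Magnetically enriched gametocytes, stage III-IV (day 7) or stage V (day 10), were exposed to serially diluted compounds in medium with 50 mM N-acetyl-D-glucosamine for 48 hours at 37 °C, microaerophilic. Staining with 500 nM MitoTracker Deep Red FM and Hoechst, then flow cytometry, gave percentage live versus dead gametocytes.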
(In flow cytometry, cells or beads pass a laser one at a time.)

The results in this text go back to publication PMC11251039, “Harnessing cholesterol uptake of malaria parasites for therapeutic applications” (EMBO Molecular Medicine, 2024).

Where “and” joins values, the source holds several entries; their conditions need not be identical. Identical values can stand only once.

A word on the IC50: it is the midpoint of a concentration-inhibition curve. One may read the viability as a read-out of living cells in per cent, often relative to untreated cells. As to `COc1cc(NC(C)CCCN)c2ncccc2c1` (stereo not drawn) [Primaquine, primaquine, reference compound], the IC50 in series [1] was found to be 18.4 µM; in series [2], 9.7 µM; in series [3] it was 41.8 µM; in series [4] (Plasmodium falciparum, read-out: IC50, P. falciparum gametocyte stage III-IV inhibition), 60 µM. For the same compound, the “Gametocyte stage III-IV viability, percentage of control” value in series [4] (0.781250000 uM, 0.78125 µM) is 95.42% and 99.73% and 94.08% and 101.8% and 105.1% and 104.7% and 100.9% (2×) and 98.19% and 96.58%; in series [4] (1.562500000 uM, 1.5625 µM), 95.15% (2×) and 94.61% and 99.24% and 100.4% and 98.94% and 101.3% and 96.75% and 94.78% and 98.39% and 95.38%; in series [4] (3.125000000 uM, 3.125 µM), 98.92% and 97.04% and 95.42% and 93.41% and 94.06% and 98.34% and 98.94% and 97.34% and 97.99% and 97.59%; in series [4] (6.250000000 uM, 6.25 µM), 98.92% and 103.8% and 95.15% and 101.3% and 99.57% and 96.95% and 89.77% and 92.16% and 101.4% and 98.59% and 97.59%; in series [4] (12.500000000 uM, 12.5 µM), 94.88% and 91.65% and 92.46% and 91.95% and 85.99% and 84% and 83.2% and 99.8% and 98.59% and 96.58%; in series [4] (25.000000000 uM) it was 79.16% and 90.84% and 90.57% and 89.5% and 87.42% and 88.71% and 66.47% and 62.28% and 62.48% and 96.99% and 92.97% and 89.75%. Moreover, the “Gametocyte stage III-IV viability, percentage of control” value was 68.48% and 81.96% and 79.26% and 79.53% and 71.16% and 70.66% and 55.31% and 29.42% and 60.69% and 80.71% and 75.49% and 72.07% in series [4] (50.000000000 uM); 13.88% and 70.94% and 81.83% and 86.47% and 12.9% and 10.48% and -20.11% and -20.13% and -19.64% and 38.56% and 39.79% and 36.92% in series [4] (100.000000000 uM); -26.52% and -4.004% and -1.274% and -24.53% and -24.5% and -24.31% and -27.02% and -23.13% and -23.83% in series [4] (200.000000000 uM). Also, the viability at 0.78125 µM in series [4] (Plasmodium falciparum, read-out: Gametocyte stage III-IV viability, percentage of control, 0.781250000 uM, 48 h, replicate values, source data Fig. 2C) was 101%. Moreover, in series [4] (Plasmodium falciparum, read-out: Gametocyte stage III-IV viability, percentage of control, 1.562500000 uM, 48 h, replicate values, source data Fig. 2C), the viability at 1.5625 µM was 98.8%. In addition, the viability at 3.125 µM in series [4] (Plasmodium falciparum, read-out: Gametocyte stage III-IV viability, percentage of control, 3.125000000 uM, 48 h, replicate values, source data Fig. 2C) amounted to 93.3%. In series [4] (Plasmodium falciparum, read-out: Gametocyte stage III-IV viability, percentage of control, 6.250000000 uM, 48 h, replicate values, source data Fig. 2C), the viability at 6.25 µM turned out to be 94.2%. Besides, the viability at 12.5 µM in series [4] (Plasmodium falciparum, read-out: Gametocyte stage III-IV viability, percentage of control, 12.500000000 uM, 48 h, replicate values, source data Fig. 2C) is 89%.
